Test: refractive index (other wavelength) (dimensionless); xn = mol fraction of the nth substance listed
Conditions: 101.3 kPa, Liquid, Wavelength=632.8 nm, Standard Abbe refractometry

CCCCCCCCCCCCCCCC [hexadecane] + COC(=O)OC
Conditions	refractive index
308.19 K, x2 = 0.132	1.4228
308.21 K, x2 = 0	1.427
308.29 K, x2 = 0.397	1.4128
308.35 K, x2 = 0.219	1.4197
308.4 K, x2 = 0.291	1.417
309.24 K, x2 = 0	1.4265
309.25 K, x2 = 0.132	1.4224
309.32 K, x2 = 0.397	1.4123
309.54 K, x2 = 0.291	1.4164
309.66 K, x2 = 0.219	1.4191
310.21 K, x2 = 0	1.4261
310.33 K, x2 = 0.132	1.4219
310.38 K, x2 = 0.397	1.4118
310.83 K, x2 = 0.291	1.4158
311.09 K, x2 = 0.219	1.4185
311.24 K, x2 = 0	1.4256
311.39 K, x2 = 0.132	1.4214
311.42 K, x2 = 0.397	1.4113
312.09 K, x2 = 0.291	1.4153
312.18 K, x2 = 0.6	1.4005
312.2 K, x2 = 0.517	1.4052
312.3 K, x2 = 0	1.4252
312.43 K, x2 = 0.132	1.421
312.46 K, x2 = 0.397	1.4108
312.54 K, x2 = 0.219	1.4179
313.16 K, x2 = 0.517	1.4048
313.32 K, x2 = 0.6	1.3999
313.33 K, x2 = 0.291	1.4147
313.34 K, x2 = 0	1.4248
313.51 K, x2 = 0.132	1.4206
313.53 K, x2 = 0.397	1.4104
313.95 K, x2 = 0.219	1.4173
314.26 K, x2 = 0.517	1.4043
314.44 K, x2 = 0	1.4244
314.44 K, x2 = 0.6	1.3994
314.55 K, x2 = 0.132	1.4201
314.62 K, x2 = 0.397	1.41
314.63 K, x2 = 0.291	1.4142
315.34 K, x2 = 0.517	1.4038
315.5 K, x2 = 0.6	1.3989
315.54 K, x2 = 0	1.4239
315.57 K, x2 = 0.132	1.4197
315.59 K, x2 = 0.219	1.4166
315.71 K, x2 = 0.397	1.4094
315.92 K, x2 = 0.291	1.4136
316.19 K, x2 = 0.689	1.3925
316.42 K, x2 = 0.517	1.4033
316.45 K, x2 = 0.804	1.3827
316.55 K, x2 = 0	1.4235
316.56 K, x2 = 0.6	1.3984
316.64 K, x2 = 0.132	1.4192
316.73 K, x2 = 0.397	1.409
316.86 K, x2 = 0.872	1.3751
317.02 K, x2 = 0.689	1.3921
317.08 K, x2 = 0.219	1.416
317.2 K, x2 = 0.291	1.4131
317.25 K, x2 = 0.804	1.3823
317.51 K, x2 = 0.517	1.4028
317.56 K, x2 = 0	1.4231
317.67 K, x2 = 0.132	1.4188
317.67 K, x2 = 0.6	1.3979
317.74 K, x2 = 0.872	1.3747
317.81 K, x2 = 0.397	1.4085
317.89 K, x2 = 0.689	1.3917
318.06 K, x2 = 0.804	1.3819
318.49 K, x2 = 0.291	1.4125
318.5 K, x2 = 0.219	1.4154
318.55 K, x2 = 0.872	1.3743
318.61 K, x2 = 0	1.4226
318.74 K, x2 = 0.132	1.4183
318.84 K, x2 = 0.689	1.3913
318.89 K, x2 = 0.397	1.408
318.91 K, x2 = 0.804	1.3815
319.4 K, x2 = 0.872	1.3739
319.74 K, x2 = 0.689	1.3909
319.79 K, x2 = 0.804	1.381
320.28 K, x2 = 0.872	1.3735
320.64 K, x2 = 0.804	1.3806

Reference: the NIST ThermoML archive (doi:10.1021/je1005533)
